Measured values as given in ChEMBL document CHEMBL1130009 (J Med Chem, 1997).

Legend:
D(3) dopamine receptor = D(3) dopamine receptor (Homo sapiens, UniProt P35462); experiment: Binding affinity on human Dopamine receptor D3 expressed in CHO cells using radioligand [3H]-YM 09151; assay type: cell-based
D(4) dopamine receptor = molecular target: T1, D(4) dopamine receptor (Homo sapiens, UniProt P21917); experiment: Binding affinity on human Dopamine receptor D4 expressed in CHO cells using radioligand [3H]-YM 09151; assay type: cell-based
T1 sequence (P21917 whole entry): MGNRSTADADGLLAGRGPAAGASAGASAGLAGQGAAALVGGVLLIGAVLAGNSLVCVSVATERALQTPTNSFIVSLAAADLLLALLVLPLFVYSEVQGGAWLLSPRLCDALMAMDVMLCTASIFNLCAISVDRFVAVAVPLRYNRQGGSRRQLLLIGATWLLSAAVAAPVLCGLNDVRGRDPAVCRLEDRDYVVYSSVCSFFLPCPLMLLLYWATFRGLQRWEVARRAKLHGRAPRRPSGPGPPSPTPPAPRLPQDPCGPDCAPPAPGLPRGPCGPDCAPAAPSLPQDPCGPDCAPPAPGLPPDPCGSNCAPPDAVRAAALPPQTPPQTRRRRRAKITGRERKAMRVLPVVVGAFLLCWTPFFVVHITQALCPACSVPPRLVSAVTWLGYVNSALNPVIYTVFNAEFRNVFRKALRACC

[1] = molecular target: T2, 5-hydroxytryptamine receptor 1A (Homo sapiens, UniProt P08908); experiment: Binding affinity against 5-hydroxytryptamine 1A receptor
T2 sequence (P08908 whole entry): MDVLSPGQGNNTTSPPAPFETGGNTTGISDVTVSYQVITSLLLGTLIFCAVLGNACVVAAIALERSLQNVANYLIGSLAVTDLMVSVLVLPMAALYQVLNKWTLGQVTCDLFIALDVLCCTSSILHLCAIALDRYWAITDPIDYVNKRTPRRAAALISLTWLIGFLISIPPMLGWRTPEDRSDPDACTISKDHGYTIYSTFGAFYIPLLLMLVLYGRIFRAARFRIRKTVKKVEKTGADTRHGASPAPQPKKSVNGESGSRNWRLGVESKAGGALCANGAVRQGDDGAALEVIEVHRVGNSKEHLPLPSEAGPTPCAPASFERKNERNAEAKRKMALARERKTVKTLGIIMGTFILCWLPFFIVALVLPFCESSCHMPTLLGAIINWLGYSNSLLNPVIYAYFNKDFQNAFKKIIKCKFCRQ

D(3) dopamine receptor, sequence (P35462 whole entry): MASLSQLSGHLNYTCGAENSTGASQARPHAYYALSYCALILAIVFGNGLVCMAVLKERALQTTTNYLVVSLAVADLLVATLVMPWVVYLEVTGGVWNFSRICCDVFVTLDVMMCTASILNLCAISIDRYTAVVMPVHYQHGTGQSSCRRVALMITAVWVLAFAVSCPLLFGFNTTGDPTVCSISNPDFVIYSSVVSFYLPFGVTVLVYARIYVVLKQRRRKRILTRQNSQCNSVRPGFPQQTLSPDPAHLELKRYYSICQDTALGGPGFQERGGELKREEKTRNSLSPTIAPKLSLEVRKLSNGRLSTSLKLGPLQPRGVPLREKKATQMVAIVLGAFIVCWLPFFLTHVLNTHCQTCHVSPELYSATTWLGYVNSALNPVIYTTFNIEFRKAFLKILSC

Ki (D(3) dopamine receptor) [nM]	Ki (D(4) dopamine receptor) [nM]	Ki [1] [nM]	SMILES
> 8000	1400	–	c1ccc(-c2nc(CN3CCN(c4ccncn4)CC3)c[nH]2)cc1
> 8000	3.8	181	c1ccc(-c2ncc(CN3CCN(c4ncccn4)CC3)[nH]2)cc1
193	5.2	–	c1ccc(-c2nc(CN3CCN(c4ccccc4)CC3)c[nH]2)cc1
> 8000	> 7300	–	c1ccc(-c2ncc(CN3CCN(c4ccncc4)CC3)[nH]2)cc1
–	73	–	c1ccc(-c2nc(CN3CCN(c4cccnc4)CC3)c[nH]2)cc1
2980	6	–	Cc1nc(-c2ccccc2)[nH]c1CN1CCN(c2ncccn2)CC1
> 6660	50	–	c1ccc(-c2nc(CN3CCN(c4cnccn4)CC3)c[nH]2)cc1
1530	8.5	–	c1ccc(-c2ncc(CN3CCN(c4ccccn4)CC3)[nH]2)cc1
